Data set [1] addresses T1, MtUPRT (Mycobacterium tuberculosis, UniProt P9WFF3). The experiment in a line: Evaluation of nucleotides as allosteric effectors. The class given is biochemical. To be noted: for activation or inhibition of MtUPRT: 500 µM nucleotide, 128 s.
For data set [2], the system named is S. solfataricus UPRT. On the set-up: method as in PMID 15752360. To be noted: cited from earlier work.
Data set [3] relates to E. coli UPRT. More on the design: method as in PMID 8856065. The settings on record: without affecting V max; cited from earlier work.
Data set [4] concerns UPRT from T. gondii. More on the design: method as in PMID 11773618. The settings on record: also stabilizes the more active tetrameric form; cited from earlier work.
Data set [5] has as its system G. intestinalis UPRT. On the set-up: method as in PMID 7622327. To be noted: cited from earlier work.
The target of data set [6] is MtUPRT:PRPP binary complex (Mycobacterium tuberculosis, UniProt P9WFF3). The experiment in a line: Isothermal titration calorimetry of GTP binding to PRPP bound enzyme. To be noted: 10 mM GTP titrated; MtUPRT 139 µM incubated with 100 µM PRPP for 1 hour. How it is done: Furthermore, no binding of GTP either to the free enzyme or to the PRPP bound enzyme was detected by ITC (data not shown). The incubation of PRPP with MtUPRT prior to the titration of GTP was tested to determine whether the binding of PRPP to MtUPRT generates conformational changes on the enzyme that could enable GTP binding. However, no binding of GTP to MtUPRT:PRPP binary complex could be detected (data now shown).
ITC experiments were carried out using an iTC200 Microcalorimeter (MicroCal Inc). Ligands and enzyme were prepared in 100 mM Hepes pH 7.5 containing 10 mM MgCl2. For direct titrations the sample cell was filled with 139 µM of MtUPRT (200 µL) and titrated (39.7 µL) with different concentrations of either substrates or products: 200 µM of uracil, 500 µM of PRPP, 500 µM of UMP, and 350 µM of PPi. In addition, titration was performed with 10 mM of GTP and the sample cell was filled with either free MtUPRT (139 µM) or MtUPRT (139 µM) incubated with 100 µM PRPP for 1 hour before starting the measurements. Reverse titrations were also carried out where the sample cell was filled with either 90 µM of PRPP or 150 µM of UMP and titrated with 633 µM of UPRT.
A stirring speed of 500 rpm and a temperature of 25°C were employed for all ITC experiments. […] The experimental data were evaluated using the Origin 7 SR4 software (MicroCal).

The target in data set [7] is T1, MtUPRT. As to the kind of experiment: Steady-state kinetics of MtUPRT, continuous spectrophotometric assay (uracil to UMP, 280 nm). It counts as biochemical. The settings on record: for k cat/K (true steady-state) / true steady-state K (K PRPP, K uracil): initial velocity pattern, varying PRPP at fixed-varying uracil; for true steady-state K (K PRPP, K uracil): sequential mechanism fit.

In data set [8] the target is T1, MtUPRT. The experiment in a line: biochemical. It counts as binding. The settings on record: for Kd: K d; for ΔG / ΔH / ΔS: reverse titration, 25°C.
Data set [9] deals with T1, MtUPRT. The experiment in a line: Evaluation of pyrimidine bases as substrates, discontinuous assay (HPLC, LC-ESI-MS/MS). The settings on record: 0.1 mM base, 1 mM PRPP, 37°C 30 min, confirmed by LC-ESI-MS/MS. The class given is biochemical. How it is done: Uracil, thymine and cytosine pyrimidine bases were evaluated as possible MtUPRT substrates. The bases were added to MtUPRT reaction mixtures and protein separated by ultrafiltration, and product formation analyzed by HPLC monitoring absorbance at 254, 260, and 280 nm. […] The MtUPRT enzyme activity measurements henceforth described were carried out using uracil as substrate and a continuous spectrophotometric assay.
Reaction mixtures containing 50 mM Tris pH 7.8, 10 mM MgCl2, 1 mM PRPP, and 0.1 mM of the pyrimidine base to be tested (uracil, cytosine, or thymine) were initiated by the addition of 54 nM of homogeneous MtUPRT. The reactions were incubated at 37°C for 30 min and then boiled for 3 min to stop the reaction. The mixtures were passed through a Centricon (10,000 Da molecular weight cut off) to remove the protein content prior to analysis. The nucleotide contents of the samples were analyzed using an HPLC Äkta Purifier system and a Sephasil peptide C18 5 µm ST 4.6/250 column. A 500 µL aliquot of each sample was loaded on the column and adsorbed material isocratically eluted with 5 mM potassium phosphate pH 4.0 containing 5% acetonitrile for 10 min at 1 mL min^−1flow rate. Nucleotides and bases were monitored at 254, 260, and 280 nm.
Another method used to analyze the nucleotide content was the LC-ESI-MS/MS. This experiment was employed to confirm results obtained in the analysis described above. The chromatography was carried out with an Eclipse plus C18 4.6/150 column (Agilent). The injected sample volume was 20 µL, which was eluted isocratically with 10 mM ammonium acetate containing 40% acetonitrile at 0.8 ml min^−1 flow rate. The LC detector was an ESI coupled to the 3200 Q-Trap (Applied Biosystems MDS SCIEX), employing the ESI-MS/MS parameters as described by others. During the chromatography run, precursor ion scan (Prec) and enhance product ion scan (EPI) were monitored. Prec monitored precursors of mass over charge ratio (m/z) of compounds containing a phosphate group (H2PO4 ^−, m/z 97) and EPI gave the fragmentation spectra of the nucleotides m/z.

The subject of data set [10] is B. caldolyticus UPRT. More on the design: method as in PMID 9268683. To be noted: hyperbolic saturation curve; cited from earlier work.
Data set [11] concerns the molecule itself. The experiment in a line: AUC.
[12] abbreviates: PRPP variable substrate, fixed-saturating uracil 35 µM.
Where [13] appears, read: in the presence of 100 µM GTP, PRPP variable substrate, uracil 35 µM.
Where [14] appears, read: in the presence of 100 µM GTP, uracil variable substrate, PRPP 350 µM.
[15] abbreviates: uracil variable substrate, fixed-saturating PRPP 350 µM.

Several values for one entry are separate records, joined by “and”; a condition that tells them apart may be missing. Equal values may be shown once.

With `Nc1ncnc2c1ncn2[C@@H]1O[C@H](COP(=O)(O)OP(=O)(O)OP(=O)(O)O)[C@@H](O)[C@H]1O` [ATP, adenosine 5′-triphosphate], in data set [1] (350 µM PRPP, 35 µM uracil), the “activation or inhibition of MtUPRT” value is recorded as “not significantly activated or inhibited”.
For `Nc1ccn([C@@H]2O[C@H](COP(=O)(O)OP(=O)(O)OP(=O)(O)O)[C@@H](O)[C@H]2O)c(=O)n1` [CTP, cytidine 5′-triphosphate], in data set [1] (500 µM CTP together with 100 µM UMP), the “effect on UMP inhibition of MtUPRT” value is reported as “no increase in UMP inhibition occurred”. Further, the “activation or inhibition of MtUPRT” value in data set [1] (350 µM PRPP, 35 µM uracil) is recorded as “not significantly activated or inhibited”. Besides, the “effect of CTP on activity” value in [2] (in the presence of UMP) is reported as “inhibited the enzyme”.
As to `Nc1nc2c(ncn2[C@@H]2O[C@H](COP(=O)(O)OP(=O)(O)OP(=O)(O)O)[C@@H](O)[C@H]2O)c(=O)[nH]1` [GTP, guanosine 5′-triphosphate], the “effect of GTP on kinetic parameters” value in [3] is reported as “lowered the K M value for PRPP”. Besides, the “effect of GTP on activity” value in [4] is listed as “activated by GTP”; in [5], “dramatic increase in the activity”. In [6], the “binding to MtUPRT:PRPP binary complex” value is given as “no binding”. Besides, the “activation or inhibition of MtUPRT” value in [1] (350 µM PRPP, 35 µM uracil) is “not significantly activated or inhibited”. For the same molecule, in [7] (100 µM GTP), the “effect on kinetic parameters for MtUPRT” value is given as “not affected”. The “binding to free MtUPRT enzyme (heat changes)” value in [8] was “no binding”. Further, in data set [2], the “effect of GTP on k cat and K M for PRPP and uracil” value was “increase k cat and K M values”.
On to `O=P(O)(O)OP(=O)(O)O` [PPi, pyrophosphate], for which the “binding to free MtUPRT enzyme (heat changes)” value in data set [8] is “no significant heat changes”.
`O=P(O)(O)OC[C@H]1O[C@H](OP(=O)(O)OP(=O)(O)O)[C@H](O)[C@@H]1O` [PRPP, 5-phosphoribosyl-α-1-pyrophosphate]: in [7] (setting [12]), the “apparent V max” value is on record as 1.75±0.02 U mg^−1 and the apparent k cat was 0.65 ± 0.01 s⁻¹. In addition, the “apparent K M” value in [7] (PRPP variable substrate, fixed-saturating uracil 35 µM, Michaelis-Menten fit) came out at 12.4 ± 0.6 µM. Moreover, in data set [7] (setting [13]), the “apparent K M” value was found to be 17 ± 2 µM, the “apparent V max” value was determined as 1.60±0.04 U mg^−1 and the apparent k cat is 0.59 ± 0.01 s⁻¹. Further, in data set [7], the “k cat/K (true steady-state)” value is reported as 4.1 (±0.2)×10^4 M^−1 s^−1 and the “true steady-state K (K PRPP, K uracil)” value stood at 14 ± 1 µM. For the same molecule, the Kd (in general, the equilibrium constant for the complex coming apart) in [8] is 5 µM and 48 µM and 6 µM and 9 µM. In data set [8] (Subunit 1), this molecule showed a ΔG of -7 ± 1 kcal/mol, a ΔH of 2.8 ± 0.3 kcal/mol and a ΔS of 34±6 cal mol^−1 deg^−1. In [8] (Subunit 2), this molecule gave a ΔG of -6 ± 2 kcal/mol, a ΔH of -3 ± 16 kcal/mol and a ΔS of 10±3 cal mol^−1 deg^−1. In [8] (Subunit 3), the ΔG was -7 ± 2 kcal/mol, the ΔH is -41 ± 32 kcal/mol and the ΔS is on record as −114±33 cal mol^−1 deg^−1. For the same molecule, in [8] (Subunit 4), the ΔG was -7 ± 3 kcal/mol, the ΔH came out at 58 ± 22 kcal/mol and the ΔS turned out to be 217±85 cal mol^−1 deg^−1. Moreover, the K a in [8] (pH 7.5) is 2.0 (±3.6)×10^5 M^−1 and 2.1 (±0.6)×10^4 M^−1 and 1.6 (±0.5)×10^5 M^−1 and 1.1 (±0.4)×10^5 M^−1.
Turning to `O=c1ccn([C@@H]2O[C@H](COP(=O)(O)O)[C@@H](O)[C@H]2O)c(=O)[nH]1` [UMP, uridine 5′-monophosphate], in data set [1] (100 µM UMP, 350 µM PRPP, 35 µM uracil), the “inhibition of MtUPRT” value is listed as “enzyme inhibition was observed”. The Kd in data set [8] was 7 µM and 8 µM and 13 µM and 14 µM. Besides, the ΔG in data set [8] (Subunit 1) was -7 ± 2 kcal/mol; in data set [8] (Subunit 2), -7 ± 2 kcal/mol; in data set [8] (Subunit 3) it was -7 ± 3 kcal/mol; in [8] (Subunit 4), -7 ± 2 kcal/mol. The ΔH in data set [8] (Subunit 1) was -5.1 ± 0.4 kcal/mol; in data set [8] (Subunit 2), 6 ± 3 kcal/mol; in data set [8] (Subunit 3) it was -24 ± 11 kcal/mol; in data set [8] (Subunit 4), 28 ± 18 kcal/mol. The ΔS is on record as 5±1 cal mol^−1 deg^−1 in data set [8] (Subunit 1), 45±16 cal mol^−1 deg^−1 in data set [8] (Subunit 2), −56±21 cal mol^−1 deg^−1 in [8] (Subunit 3) and 117±43 cal mol^−1 deg^−1 in [8] (Subunit 4).
In the case of `O=c1ccn([C@@H]2O[C@H](COP(=O)(O)OP(=O)(O)OP(=O)(O)O)[C@@H](O)[C@H]2O)c(=O)[nH]1` [UTP, uridine 5′-triphosphate], the “activation or inhibition of MtUPRT” value in data set [1] (350 µM PRPP, 35 µM uracil) was “not significantly activated or inhibited”.
With `Nc1cc[nH]c(=O)n1` [cytosine], in data set [9], the “substrate activity (product formation)” value is on record as “no product formation could be detected”.
With `Cc1c[nH]c(=O)[nH]c1=O` [thymine], the “substrate activity (product formation)” value in [9] is reported as “no product formation could be detected”.
Turning to `O=c1cc[nH]c(=O)[nH]1` [uracil], in data set [9], the “substrate activity (product formation)” value is on record as “specific for uracil”. The “K M for uracil” value in [10] is reported as 2 µM. Also, in data set [7] (setting [14]), the “K 0.5” value amounted to 2.9 ± 0.1 µM, the “apparent V max” value worked out at 1.54±0.02 U mg^−1, the apparent k cat stood at 0.57 ± 0.01 s⁻¹ and the “n (Hill coefficient)” value is 2.2±0.1. Besides, in data set [7], the “k cat/K (true steady-state)” value is 2.2 (±0.3)×10^5 M^−1 s^−1 and the “true steady-state K (K PRPP, K uracil)” value amounted to 2.6 ± 0.4 µM. Moreover, in [7] (setting [15]), the “apparent V max” value was determined as 1.73±0.03 U mg^−1, the apparent k cat was 0.64 ± 0.01 s⁻¹ and the “n (Hill coefficient)” value is 1.9±0.1. Besides, in data set [7] (uracil variable substrate, fixed-saturating PRPP 350 µM, Hill fit), the “K 0.5” value amounted to 3.6 ± 0.1 µM. Moreover, the “binding to free MtUPRT enzyme (heat changes)” value in data set [8] is “no significant heat changes”.

B1: Uracil phosphoribosyltransferase from Mycobacterium tuberculosis (enzyme)
chain: MQVHVVDHPLAAARLTTLRDERTDNAGFRAALRELTLLLIYEATRDAPCEPVPIRTPLAETVGSRLTKPPLLVPVLRAGLGMVDEAHAALPEAHVGFVGVARDEQTHQPVPYLDSLPDDLTDVPVMVLDPMVATGGSMTHTLGLLISRGAADITVLCVVAAPEGIAALQKAAPNVRLFTAAIDEGLNEVAYIVPGLGDAGDRQFGPR
notes: also called MtUPRT; UPRT
For the molecule B1, in [11], the Kd is approximately 1 µM and the stoichiometry N – broadly, the number of molecules, sites or subunits per partner or assembly – is 4.
